Data from patent US20250347685A1, “DONOR-ACCEPTOR CONJUGATED OLIGOELECTROLYTES FOR CELL LABELLING AND METHODS THEREOF” (National University of Singapore, priority 2021, published 2025).

Experiments:
[1] = COE intercalation into lipid bilayer of SUVs, emission measured with a fluorimeter; assay type: physicochemical; conditions: in PBS
Experimental: Liposomes were prepared using the protocol as follows. Phospholipids (ex. POPC, POPE, and POPG) in chloroform solution were mixed to a proper molar ratio and dried under a gentle stream of nitrogen. The dried lipids were further desiccated in a vacuum overnight to obtain a thin lipid film. For preparing small unilamellar vesicles (SUVs), rehydration of the dried film was carried out by adding phosphate buffered saline (PBS) to a concentration of 5 mg mL-1, followed by incubation at 35° C. for 2 h under constant stirring at ˜300 rpm. Then, the vesicles were extruded using a 100 nm membrane at 45° C. 21 times to obtain SUV samples. Vesicles were kept at 4° C. until further use.
When mixing the SUVs with COE-BT, the COE will intercalate into the lipid bilayers. This is spontaneously driven by the electrostatic and hydrophobic interactions between the COEs and the lipids. As a result, a significant emission enhancement is observed. For example, relative to the COE-BT solution, the emission intensity of the SUV and COE-BT complexes increases more than 400 times between 600 to 630 nm. […] By adjusting different chemical structures, the COEs can achieve different emission wavelengths, ranging from “green”, “red”, to even “infrared” (FIGS. 14 & 15). The various color choices confer COE dyes with high compatibility in using multiple dyes concurrently.

[2] = Dynamic light scattering of liposome size and uniformity after COE addition; assay type: physicochemical; conditions: 10 μM COE into 1 mg/mL SUV samples
Experimental: To identify whether COE treatment will alter the morphology of liposomes (e.g., inducing the fusion or fission of liposomes), dynamic light scattering (DLS) measurements with a lipid SUV model were employed (FIG. 16). The SUVs were obtained after extrusion using a 100 nm membrane. […] After addition of 10 μM COE-BBT into the 1 mg/mL SUV samples, the Z-average size is 104.8±32.65 nm with a PDI of 0.054.

SW480 exosomes = test: NanoAnalyzer (NanoFCM) flow analysis of dye-labelled SW480 exosomes and dye only controls; conditions: for % Positive for dye: after purifying excess dyes using ultracentrifugation; for Number of particle counts, positive / Number of particle counts, total: dye only controls
Experimental: In another example, exosomes isolated from SW480 colon cancer cell lines and purified using size exclusion chromatography were kindly provided by NanoFCM (UK). The labelling and flow cytometry analysis were also carried out by the trained technicians at NanoFCM (UK). […] The mixture was left to incubate at room temperature for 30 min and then diluted 100 times using PBS before analysis on the NanoAnalyzer (NanoFCM). Detection of the exosomes was carried out on the small threshold settings (68-155 S16M-Exo) and analysis of the labelled population was done on the PC5 channel (Ex488/Em670). Dye control samples were prepared by replacing the 9 μL exosome solution with PBS, followed by the same steps as the exosome samples for flow analysis. The results were validated through at least two replicates. In a separate experiment, the labelled exosomes were also purified of excess dyes using standard ultracentrifugation methods before analyzing as per described above.

HCT 116 Exosomes = test: Flow cytometry of exosomes labelled with COE compound
Experimental: Exosome were prepared via the following protocol: Exosomes were purchased from ATCC, aliquoted and stored at −80° C. A single aliquot was removed from −80° C. and placed on ice. Exosomes were diluted 10 times in cell culture grade PBS. 8 μL of the exosome suspension was mixed with between […] of COE compound. This was placed on ice for 10-minutes before being diluted 100 times in PBS to an approximate final concentration of 6×10^6 particles/mL of exosomes and 25-1 nM of COE.
Samples were briefly vortexed and used for flow cytometry. Flow cytometry measurements were obtained by measuring the side scattering on the violet laser (x-axis) and by measuring fluorescent intensity (y-axis: λexcitation=405, 488 nm λemission=525, 690 nm). […] Using the COE compound, the exosomes can be stained with a low concentration of dye and can be used directly without additional purification.

Red blood cells = test: Flow cytometry of red blood cells from donor's blood labelled with dye; assay type: cell-based
Experimental: Red blood cells were obtained from donor's blood after removing the plasma via centrifugation. The RBC were either used fresh or stored for 22 days. […] The cells were incubated with the dyes for 10 min before centrifuging down at 700 g for 3 min to remove free dyes. The labelled cell pellet was then resuspended in 1 mL of PBS. The cells were then diluted 10× further in PBS before imaging on the 8-well ibidi chamber slides, and analysing for size and fluorescence on the flow cytometry (Cytoflex).

RBCs = test: Flow cytometry of COE-stained and unstained red blood cells mixed at various ratios; assay type: cell-based, Bovine
Experimental: RBCs (isolated from Bovine whole blood, Innovative Research, Inc.) were diluted 10 times from stock into PBS and centrifuged at 3,000 RPM for 5 minutes. The supernatant was removed, and the pellet was resuspended in PBS. This was repeated for a total of 3 times. The final pellet was resuspended into PBS to be 1% by volume. […] COE compound was added to the RBC suspension and was allowed to incubate for 20 min at RT. The RBC COE compound mixture was then centrifuged again at 3,000 RPM for 5 min. The supernatant was removed and the pellet resuspended in fresh PBS. COE compound stained and unstained RBCs were respectively mixed at various ratios by volume of 0:5, 1:4, 2:3, 3:2, 4:1 and 5:0. The resulting RBC mixtures were diluted 100 times in PBS for flow cytometry experiments.

SMILES | % Positive for dye (SW480 exosomes; 10 uM) [%] | % Positive for dye (SW480 exosomes; 20 uM) [%] | Number of particle counts, positive (SW480 exosomes; 10 uM) | Number of particle counts, total (SW480 exosomes; 10 uM) | % of events in Area of Interest (HCT 116 Exosomes; Exosome + COE) [%] | All Events/μL (HCT 116 Exosomes; Exosome + COE) [Events/μL] | Area of Interest Events/μL (HCT 116 Exosomes; Exosome + COE) [Events/μL] | % of events in Area of Interest (HCT 116 Exosomes; dye only, no exosomes) [%] | All Events/μL (HCT 116 Exosomes; dye only, no exosomes) [Events/μL] | Area of Interest Events/μL (HCT 116 Exosomes; dye only, no exosomes) [Events/μL] | further results
C[N+](C)(C)CCCCCCOc1cc(/C=C/c2ccc(-c3ccc(-c4c5c(c(-c6ccc(-c7ccc(/C=C/c8cc(OCCCCCC[N+](C)(C)C)c(OCCCCCC[N+](C)(C)C)c(OCCCCCC[N+](C)(C)C)c8)cc7)s6)c6nsnc46)N=S=N5)s3)cc2)cc(OCCCCCC[N+](C)(C)C)c1OCCCCCC[N+](C)(C)C [COE-BBT] | – | – | – | – | – | – | – | – | – | – | emission enhancement after mixing with SUVs (in words) [1]: same phenomenon is seen; PDI of SUVs after COE addition [2]: 0.054; Z-average size of SUVs after COE addition [2]: 104.8±32.65 nm
C[N+](C)(C)CCCCCCOc1cc(/C=C/c2ccc(-c3ccc(-c4ccc(-c5ccc(-c6ccc(/C=C/c7cc(OCCCCCC[N+](C)(C)C)c(OCCCCCC[N+](C)(C)C)c(OCCCCCC[N+](C)(C)C)c7)cc6)s5)c5nonc45)s3)cc2)cc(OCCCCCC[N+](C)(C)C)c1OCCCCCC[N+](C)(C)C.[Br-].[Br-].[Br-].[Br-].[Br-].[Br-] [COE-BO] | 43.10 | 47.60 | 2 | 181 | – | – | – | – | – | – | Percentage + (positive events) (SW480 exosomes; labelled SW480 exosomes, 10 uM, N = 2): 66.55%
C[N+](C)(C)CCCCCCOc1cc(/C=C/c2ccc(-c3ccc(-c4ccc(-c5ccc(-c6ccc(/C=C/c7cc(OCCCCCC[N+](C)(C)C)c(OCCCCCC[N+](C)(C)C)c(OCCCCCC[N+](C)(C)C)c7)cc6)s5)cc4)s3)cc2)cc(OCCCCCC[N+](C)(C)C)c1OCCCCCC[N+](C)(C)C.[I-].[I-].[I-].[I-].[I-].[I-] [COE-Ben] | – | – | – | – | 54.69 | 6071.19 | 3314.72 | 6.72 | 1480.33 | 99.48 | –
C[N+](C)(C)CCCCCCOc1cc(/C=C/c2ccc(-c3ccc(-c4ccc(-c5ccc(-c6ccc(/C=C/c7cc(OCCCCCC[N+](C)(C)C)c(OCCCCCC[N+](C)(C)C)c(OCCCCCC[N+](C)(C)C)c7)cc6)cc5)cc4)cc3)cc2)cc(OCCCCCC[N+](C)(C)C)c1OCCCCCC[N+](C)(C)C.[I-].[I-].[I-].[I-].[I-].[I-] [COE-Quin] | – | – | – | – | 63.71 | 6088.97 | 3878.99 | 7.98 | 1438.47 | 114.78 | –
C[N+](C)(C)CCCCCCOc1cc(/C=C/c2ccc(/C=C/c3ccc(/C=C/c4ccc(/C=C/c5ccc(/C=C/c6cc(OCCCCCC[N+](C)(C)C)c(OCCCCCC[N+](C)(C)C)c(OCCCCCC[N+](C)(C)C)c6)cc5)cc4)cc3)cc2)cc(OCCCCCC[N+](C)(C)C)c1OCCCCCC[N+](C)(C)C.[I-].[I-].[I-].[I-].[I-].[I-] [COE-S6] | – | – | – | – | 63.67 | 5113.31 | 3255.41 | 1.41 | 2909.37 | 41.08 | artifact to the morphology of the RBC (FSC/SSC dot plots) (Red blood cells; 1 μM COE-S6): does not introduce an artifact; change in fluorescence of RBCs labelled with increasing dye concentrations (Red blood cells; histograms, FIG. 35 d-e): increase in fluorescence; homogeneity of RBC labelling (coefficient of variance of histogram data) (Red blood cells; versus Cell Mask Deep Red): more homogeneous and uniform; RBC + COE-S6 Events/μL (RBCs; stained to unstained RBCs 1:4): 207.2 Events/μL; RBC Events/μL (RBCs; stained to unstained RBCs 1:4): 891.58 Events/μL; total events/μL (RBCs; stained to unstained RBCs 1:4): 1098 events/μL; RBC + COE-S6 Events/μL (RBCs; stained to unstained RBCs 2:3): 312.27 Events/μL; RBC Events/μL (RBCs; stained to unstained RBCs 2:3): 812.03 Events/μL; total events/μL (RBCs; stained to unstained RBCs 2:3): 1124 events/μL; RBC + COE-S6 Events/μL (RBCs; stained to unstained RBCs 3:2): 767.09 Events/μL; RBC Events/μL (RBCs; stained to unstained RBCs 3:2): 470.71 Events/μL; total events/μL (RBCs; stained to unstained RBCs 3:2): 1237 events/μL; RBC + COE-S6 Events/μL (RBCs; stained to unstained RBCs 4:1): 1039.71 Events/μL; RBC Events/μL (RBCs; stained to unstained RBCs 4:1): 225.64 Events/μL; total events/μL (RBCs; stained to unstained RBCs 4:1): 1265 events/μL; RBC + COE-S6 Events/μL (RBCs; stained to unstained RBCs 5:0): 450.48 Events/μL; RBC Events/μL (RBCs; stained to unstained RBCs 5:0): 2.98 Events/μL; total events/μL (RBCs; stained to unstained RBCs 5:0): 453 events/μL
CCCCCCCCCCCCCCCCCCCCCC[N+]1=C(/C=C/C=C2/N(CCCCCCCCCCCCCC)c3ccccc3C2(C)C)C(C)(C)c2ccccc21.[I-] [PKH-26, reference compound] | 22.00 | 19.90 | 636 | 637 | – | – | – | – | – | – | –
